Data from patent US20070243222A1, “FUNGICIDAL FORMULATION AND METHOD OF USE” (priority 2006, published 2007).

How the values were obtained:
[1] = tested on: onychomycosis; settings: topical nail lacquer once daily, mild to moderate onychomycosis; combined results of two randomized, controlled trials; cited from earlier work
[2] = tested on: onychomycosis; settings: standard oral treatment; survey Arch Dermatol 134(12):1551-1554, 1998; cited from earlier work
[3] = tested on: Trichophyton rubrum; test: inhibition of propagation of Trichophyton rubrum; type: cell-based; settings: acting alone or in combination
From the text: An additional iron chelating agent, useful in the present invention, is an iron-chelating agent consisting of ciclopirox in conjunction with a light-blocking agent. Particularly, preferred iron chelating agents useful in the present invention are zinc pyrithione and Chelex-100. Pyrithione is 2-pyridinethiol-1-oxide and is a “bidentate ligand” that has the capacity to complex with metals other than zinc, such as iron. Chelex-100 is a styrene divinylbenzene copolymer containing paired iminodiacetate ions, which act as chelating groups for binding polyvalent metal ions.

In the case of `Cc1cc(C2CCCCC2)n(O)c(=O)c1` [ciclopirox], the “complete resolution, share of treated patients” value [1] is given as “approximately 7%”.
For `CN(C/C=C/C#CC(C)(C)C)Cc1cccc2ccccc12` [terbinafine], the “disease-free nails, share of cases” value [2] is given as 35-50%.
For zinc pyrithione, the “inhibitory effect on the propagation of Trichophyton rubrum” value [3] was “potent inhibitory effect”.
